PubChem BioAssay (NCI)
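GI50 = concentration required for 50% inhibition of growth. At the TGI there is no net growth.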

Tests used:
Assay in all cases: NCI anticancer screen, dose series, 384-well format
A549 NSCLC = test system: A549 NSCLC
K-562 leukemia = test system: K-562 leukemia
HL-60(TB) leukemia = test system: HL-60(TB) leukemia
SR leukemia = test system: SR leukemia
NCI-H226 lung = test system: NCI-H226 lung
RXF 393 renal = test system: RXF 393 renal
OVCAR-5 ovarian = test system: OVCAR-5 ovarian
HOP-62 NSCLC = test system: HOP-62 NSCLC
BT-549 breast = test system: BT-549 breast
NCI-H322M lung = test system: NCI-H322M lung
KM12 colon = test system: KM12 colon
OVCAR-3 ovarian = test system: OVCAR-3 ovarian
T-47D breast = test system: T-47D breast
CCRF-CEM leukemia = test system: CCRF-CEM leukemia
NCI/ADR-RES ovarian = test system: NCI/ADR-RES ovarian
COLO 205 colon = test system: COLO 205 colon
ACHN renal = test system: ACHN renal
SF-295 CNS = test system: SF-295 CNS
U251 glioblastoma = test system: U251 glioblastoma
A498 renal = test system: A498 renal
SW-620 colon = test system: SW-620 colon
HCT-116 colon = test system: HCT-116 colon
SF-539 CNS = test system: SF-539 CNS
TK-10 renal = test system: TK-10 renal
MDA-MB-468 breast = test system: MDA-MB-468 breast
786-0 renal = test system: 786-0 renal
UO-31 renal = test system: UO-31 renal
SK-MEL-2 melanoma = test system: SK-MEL-2 melanoma
HOP-92 NSCLC = test system: HOP-92 NSCLC
MDA-MB-435 melanoma = test system: MDA-MB-435 melanoma
OVCAR-4 ovarian = test system: OVCAR-4 ovarian
MALME-3M melanoma = test system: MALME-3M melanoma
UACC-257 melanoma = test system: UACC-257 melanoma
NCI-H23 lung = test system: NCI-H23 lung
MDA-MB-231 breast = test system: MDA-MB-231 breast
OVCAR-8 ovarian = test system: OVCAR-8 ovarian
HT29 colon = test system: HT29 colon
UACC-62 melanoma = test system: UACC-62 melanoma
MCF7 breast = test system: MCF7 breast
CAKI-1 renal = test system: CAKI-1 renal
RPMI-8226 leukemia = test system: RPMI-8226 leukemia
SN12C renal = test system: SN12C renal
MOLT-4 leukemia = test system: MOLT-4 leukemia
IGROV1 ovarian = test system: IGROV1 ovarian
SK-MEL-28 melanoma = test system: SK-MEL-28 melanoma
HCC-2998 colon = test system: HCC-2998 colon
HCT-15 colon = test system: HCT-15 colon
LOX IMVI melanoma = test system: LOX IMVI melanoma
NCI-H460 NSCLC = test system: NCI-H460 NSCLC
NCI-H522 lung = test system: NCI-H522 lung
SNB-19 CNS = test system: SNB-19 CNS
SK-OV-3 ovarian = test system: SK-OV-3 ovarian
DU-145 prostate = test system: DU-145 prostate
SF-268 CNS = test system: SF-268 CNS
SK-MEL-5 melanoma = test system: SK-MEL-5 melanoma
M14 melanoma = test system: M14 melanoma
PC-3 prostate = test system: PC-3 prostate

C=C(F)C(=O)N1CCN(c2nc(OC[C@@H]3CCCN3C)nc3c2CCN(c2cccc4cccc(Cl)c24)C3)C[C@@H]1CC#N
GI50 (A549 NSCLC): 561 nM
TGI (A549 NSCLC): 1840 nM
GI50 (K-562 leukemia): 253 nM
TGI (K-562 leukemia): 1320 nM
GI50 (HL-60(TB) leukemia): 637 nM
TGI (HL-60(TB) leukemia): 1820 nM
GI50 (SR leukemia): 134 nM
TGI (SR leukemia): 512 nM
GI50 (NCI-H226 lung): 915 nM
TGI (NCI-H226 lung): 2140 nM
GI50 (RXF 393 renal): 379 nM
TGI (RXF 393 renal): 1560 nM
GI50 (OVCAR-5 ovarian): 386 nM
TGI (OVCAR-5 ovarian): 1190 nM
GI50 (HOP-62 NSCLC): < 10 nM
TGI (HOP-62 NSCLC): 1390 nM
GI50 (BT-549 breast): 1210 nM
TGI (BT-549 breast): 2450 nM
GI50 (NCI-H322M lung): 1270 nM
TGI (NCI-H322M lung): 2590 nM
GI50 (KM12 colon): 561 nM
TGI (KM12 colon): 1750 nM
GI50 (OVCAR-3 ovarian): 657 nM
TGI (OVCAR-3 ovarian): 1880 nM
GI50 (T-47D breast): 430 nM
TGI (T-47D breast): 1900 nM
GI50 (CCRF-CEM leukemia): 351 nM
TGI (CCRF-CEM leukemia): 1340 nM
GI50 (NCI/ADR-RES ovarian): 411 nM
TGI (NCI/ADR-RES ovarian): 1440 nM
GI50 (COLO 205 colon): 564 nM
TGI (COLO 205 colon): 1740 nM
GI50 (ACHN renal): 992 nM
TGI (ACHN renal): 2160 nM
GI50 (SF-295 CNS): 1480 nM
TGI (SF-295 CNS): 2810 nM
GI50 (U251 glioblastoma): 285 nM
TGI (U251 glioblastoma): 994 nM
GI50 (A498 renal): 471 nM
TGI (A498 renal): 1590 nM
GI50 (SW-620 colon): 1120 nM
TGI (SW-620 colon): 2350 nM
GI50 (HCT-116 colon): 326 nM
TGI (HCT-116 colon): 1350 nM
GI50 (SF-539 CNS): 472 nM
TGI (SF-539 CNS): 1520 nM
GI50 (TK-10 renal): 925 nM
TGI (TK-10 renal): 2160 nM
GI50 (MDA-MB-468 breast): 275 nM
TGI (MDA-MB-468 breast): 1110 nM
GI50 ([…]-0 renal): 509 nM
TGI (786-0 renal): 1780 nM
GI50 (UO-31 renal): 1150 nM
TGI (UO-31 renal): 2370 nM
GI50 (SK-MEL-2 melanoma): 484 nM
TGI (SK-MEL-2 melanoma): 1630 nM
GI50 (HOP-92 NSCLC): 341 nM
TGI (HOP-92 NSCLC): 931 nM
GI50 (MDA-MB-435 melanoma): 1270 nM
TGI (MDA-MB-435 melanoma): 2550 nM
GI50 (OVCAR-4 ovarian): 853 nM
TGI (OVCAR-4 ovarian): 2120 nM
GI50 (MALME-3M melanoma): 1330 nM
TGI (MALME-3M melanoma): 2610 nM
GI50 (UACC-257 melanoma): 749 nM
TGI (UACC-257 melanoma): 2020 nM
GI50 (NCI-H23 lung): < 10 nM
GI50 (MDA-MB-231 breast): 417 nM
TGI (MDA-MB-231 breast): 1420 nM
GI50 (OVCAR-8 ovarian): 405 nM
TGI (OVCAR-8 ovarian): 1360 nM
GI50 (HT29 colon): 652 nM
TGI (HT29 colon): 1930 nM
GI50 (UACC-62 melanoma): 692 nM
TGI (UACC-62 melanoma): 1910 nM
GI50 (MCF7 breast): 1190 nM
TGI (MCF7 breast): 2430 nM
GI50 (CAKI-1 renal): 499 nM
TGI (CAKI-1 renal): 1690 nM
GI50 (RPMI-8226 leukemia): 165 nM
TGI (RPMI-8226 leukemia): 491 nM
GI50 (SN12C renal): 1200 nM
TGI (SN12C renal): 2440 nM
GI50 (MOLT-4 leukemia): 182 nM
TGI (MOLT-4 leukemia): 384 nM
GI50 (IGROV1 ovarian): 1290 nM
TGI (IGROV1 ovarian): 2610 nM
GI50 (SK-MEL-28 melanoma): 1130 nM
TGI (SK-MEL-28 melanoma): 2360 nM
GI50 (HCC-2998 colon): 1080 nM
TGI (HCC-2998 colon): 2280 nM
GI50 (HCT-15 colon): 568 nM
TGI (HCT-15 colon): 1710 nM
GI50 (LOX IMVI melanoma): 1100 nM
TGI (LOX IMVI melanoma): 2310 nM
GI50 (NCI-H460 NSCLC): 414 nM
TGI (NCI-H460 NSCLC): 1390 nM
GI50 (NCI-H522 lung): 255 nM
TGI (NCI-H522 lung): 861 nM
GI50 (SNB-19 CNS): 745 nM
TGI (SNB-19 CNS): 1960 nM
GI50 (SK-OV-3 ovarian): 1070 nM
TGI (SK-OV-3 ovarian): 2280 nM
GI50 (DU-145 prostate): 1210 nM
TGI (DU-145 prostate): 2480 nM
GI50 (SF-268 CNS): 542 nM
TGI (SF-268 CNS): 1660 nM
GI50 (SK-MEL-5 melanoma): 564 nM
TGI (SK-MEL-5 melanoma): 1810 nM
GI50 (M14 melanoma): 692 nM
TGI (M14 melanoma): 1920 nM
GI50 (PC-3 prostate): 723 nM
TGI (PC-3 prostate): 2010 nM
